These results are taken from patent publication US20110183978A1, “Phenylpyri(mi)dinylazoles” (Bayer CropScience AG, priority 2009, published 2011).

Each structure is given as a SMILES string.

The test system of one experiment is Pyricularia grisea. The experiment is classed as in vivo. The settings on record: 500 ppm; rice plants sprayed 24 hours before inoculation; scored after 6 days.
The subject of the next experiment is Alternaria solani. In words: Example M: in vivo test on Alternaria solani (leaf blotch disease/tomato/protective). The settings on record: 168 h, tomato, protective, 500 ppm active substance, assessed 7 days after inoculation, read-out: % Wirkungsgrad (activity level). The gist of the method:
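Protective test: young tomato plants sprayed with active substance (in DMF with alkylaryl polyglycol ether emulsifier, diluted in water) at the stated dosage, then inoculated with Alternaria solani. Disease assessed 7 days after inoculation.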

Regarding `CC(C)Cn1cc(-c2ccncc2)c(-c2ccc(F)cc2)n1` [Compound 1], in the experiment on Pyricularia grisea, the “% Activity level” value stood at 82%.
Turning to `CC(C)C(=O)Nc1cc(-c2cn(C(C)C)nc2-c2ccc(F)cc2)ccn1` [Compound 84], the pest or weed control at 500 ppm with Alternaria solani stood at 95%.
Still for that read-out and setting: then `CCC(=O)Nc1cc(-c2cn(C(C)C)nc2-c2ccc(F)cc2)ccn1` [Compound 85], with 100%.
